Reference: ChEMBL document CHEMBL3992498, “Novel biguanide-based derivatives scouted as TAAR1 agonists: Synthesis, biological evaluation, ADME prediction and molecular docking studies” (Eur J Med Chem, 2017)
Calls of active or inactive are those of the source. The rule behind the calls is not given here.

Experiments:
[1] = target: T1, Trace amine-associated receptor 1 (Homo sapiens, UniProt Q96RJ0); assay: […] of full length recombinant human N-terminal HA-tagged/C-terminal FLAG-tagged TAAR1 expressed in CHOK1 cells assessed as increase in cAMP accumulation by AlphaScreen assay; type: functional, cell-based
T1 sequence (Q96RJ0 whole entry): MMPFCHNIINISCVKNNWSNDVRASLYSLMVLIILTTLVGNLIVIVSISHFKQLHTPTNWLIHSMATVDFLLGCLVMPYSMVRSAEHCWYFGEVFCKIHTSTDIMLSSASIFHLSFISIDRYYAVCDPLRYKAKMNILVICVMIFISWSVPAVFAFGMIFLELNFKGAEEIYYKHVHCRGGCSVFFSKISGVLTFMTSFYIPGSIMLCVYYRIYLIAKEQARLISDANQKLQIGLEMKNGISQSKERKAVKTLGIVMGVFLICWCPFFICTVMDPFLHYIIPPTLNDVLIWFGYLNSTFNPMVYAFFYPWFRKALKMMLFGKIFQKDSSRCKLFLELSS

[2] = Selectivity ratio of EC50 for human TAAR1 expressed in HEK293 cells to EC50 for mouse TAAR1 expressed in HEK293 cells; type: cell-based
[3] = target: T2, Trace amine-associated receptor 5 (Mus musculus, UniProt Q5QD14); assay: Agonist activity at mouse TAAR5 expressed in HEK293 cells assessed as cAMP accumulation after 20 mins by BRET assay; type: functional, cell-based
T2 sequence (Q5QD14 whole entry): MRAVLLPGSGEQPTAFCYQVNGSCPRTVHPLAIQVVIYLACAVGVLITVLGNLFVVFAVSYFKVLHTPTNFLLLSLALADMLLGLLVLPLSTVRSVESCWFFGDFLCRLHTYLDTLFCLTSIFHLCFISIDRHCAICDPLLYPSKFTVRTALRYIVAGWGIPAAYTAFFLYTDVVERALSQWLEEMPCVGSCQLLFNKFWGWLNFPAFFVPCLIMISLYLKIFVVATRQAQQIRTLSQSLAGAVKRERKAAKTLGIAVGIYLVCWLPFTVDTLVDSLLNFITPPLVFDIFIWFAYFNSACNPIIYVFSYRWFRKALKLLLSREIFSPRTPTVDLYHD

[4] = target: Trace amine-associated receptor 1 (Mus musculus) (UniProt Q923Y8); assay: Agonist activity at mouse TAAR1 expressed in HEK293 cells assessed as cAMP accumulation at 10 uM after 20 mins by BRET assay relative to beta-PEA; type: functional, cell-based
Sequence of Trace amine-associated receptor 1 (Mus musculus) (Q923Y8 whole entry): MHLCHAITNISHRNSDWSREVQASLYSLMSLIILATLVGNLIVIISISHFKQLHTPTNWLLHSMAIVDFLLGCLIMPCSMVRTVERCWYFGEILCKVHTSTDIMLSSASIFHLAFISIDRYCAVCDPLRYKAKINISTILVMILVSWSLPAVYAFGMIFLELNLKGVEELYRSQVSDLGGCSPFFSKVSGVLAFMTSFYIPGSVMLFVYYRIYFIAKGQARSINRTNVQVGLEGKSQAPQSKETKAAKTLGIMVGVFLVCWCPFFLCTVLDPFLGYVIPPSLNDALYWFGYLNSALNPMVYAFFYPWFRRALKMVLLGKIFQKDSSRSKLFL

[5] = target: T1, Trace amine-associated receptor 1; assay: Agonist activity at human TAAR1 expressed in HEK293 cells assessed as cAMP accumulation after 20 mins by BRET assay; type: functional, cell-based
[6] = target: T3, Trace amine-associated receptor 1 (Homo sapiens) (UniProt Q96RJ0); assay: Agonist activity at human TAAR1 expressed in HEK293 cells assessed as cAMP accumulation at 10 uM after 20 mins by BRET assay relative to beta-PEA; type: functional, cell-based
T3 sequence (whole entry): T1 sequence (Q96RJ0 whole entry)

[7] = target: Trace amine-associated receptor 1 (Mus musculus, UniProt Q923Y8); assay: Agonist activity at mouse TAAR1 expressed in HEK293 cells assessed as cAMP accumulation after 20 mins by BRET assay; type: functional, cell-based
Sequence of Trace amine-associated receptor 1 (Mus musculus, UniProt Q923Y8) (Q923Y8 whole entry): as above

SMILES	EC50 [1] [µM]	Ratio EC50 [2]	EC50 [3] [µM]	Emax [4] [%]	EC50 [5] [µM]	Emax [6] [%]	EC50 [7] [µM]	Activity [4]	Activity [6]
NCCc1ccc(Oc2ccc(O)cc2)c(I)c1	1.69	–	–	–	–	–	–	–	–
NC(N)=N/C(N)=N/Cc1ccccc1Cl	–	7.31	> 10	> 85	3	> 85	0.41	–	–
[H]/N=C(\N/C(=N/[H])Nc1ccc(Cl)cc1)NC(C)C [PROGUANIL]	–	–	> 10	–	> 10	–	5.4	–	–
CC(C)NC(=N)NC(=N)Nc1ccc(Cl)cc1	–	> 1.85	–	> 85	–	> 85	–	–	–
COc1ccc(/N=C(\N)N=C(N)N)cc1	–	–	> 10	–	–	–	–	inactive	inactive
N=C(N)NC(=N)Nc1ccccc1 [PHENYL BIGUANIDE]	–	–	> 10	–	–	–	–	inactive	inactive
NC(N)=N/C(N)=N/C1CCCC1	–	–	> 10	–	–	–	–	inactive	inactive
N=C(N)NC(=N)Nc1cccc(Cl)c1	–	–	> 10	–	–	–	–	inactive	inactive
NC(N)=N/C(N)=N/Cc1ccc(Cl)cc1	–	2.31	> 10	> 85	1.8	> 85	0.78	–	–
NC(N)=N/C(N)=N/c1cccc(F)c1	–	–	> 10	–	–	–	–	inactive	inactive
COc1ccc(C/N=C(\N)N=C(N)N)cc1OC	–	–	> 10	–	–	–	–	inactive	inactive
COc1ccc(CNC(=N)NC(=N)N)cc1	–	–	> 10	–	–	–	–	inactive	inactive
N=C(N)NC(=N)Nc1ccc(Cl)cc1 [4-CHLOROPHENYLBIGUANIDE]	–	> 4.76	> 10	> 85	> 10	> 85	2.1	–	–
N=C(N)NC(=N)N1CCOCC1	–	–	–	–	–	–	–	inactive	inactive
COc1cc(Cc2cnc(N)nc2N)cc(OC)c1OC [TRIMETHOPRIM]	–	–	> 10	–	–	–	–	inactive	inactive
N=C(N)NC(=N)Nc1ccc(Cl)c(Cl)c1	–	–	> 10	–	–	–	–	inactive	inactive
NC(N)=N/C(N)=N/Cc1cccc(Cl)c1	–	72.2	> 10	> 85	7	> 85	0.097	–	–
CCc1nc(N)nc(N)c1-c1ccc(Cl)cc1 [PYRIMETHAMINE]	–	–	> 10	–	–	–	–	inactive	inactive
NC(N)=N/C(N)=N/Cc1cccc(F)c1	–	2.96	> 10	> 85	1.6	> 85	0.54	–	–
NC(N)=N/C(N)=N/C1CCCCCC1	–	–	> 10	–	–	–	–	inactive	inactive
NC(N)=N/C(N)=N/Cc1cccc(Br)c1	–	2.72	> 10	> 85	4.9	> 85	1.8	–	–
NC(N)=N/C(N)=N/c1ccc([N+](=O)[O-])cc1	–	–	> 10	–	–	–	–	inactive	inactive
N=C(N)NC(=N)NC12CC3CC(CC(C3)C1)C2	–	–	> 10	–	–	–	–	inactive	inactive
CC1(C)N=C(N)N=C(N)N1c1ccc(Cl)cc1 [CYCLOGUANIL]	–	–	> 10	–	–	–	–	inactive	inactive
N=C(N)NC(=N)NCc1ccccc1	–	> 12.8	> 10	> 85	> 10	> 85	0.78	–	–
NC1=NC2(CCCCC2)N(c2ccc(Cl)cc2)C(N)=N1	–	–	> 10	–	–	–	–	inactive	inactive
N=C(N)NC(=N)Nc1ccccc1Cl	–	2.44	> 10	> 85	1	> 85	0.41	–	–
Cc1ccc(NC(=N)N=C(N)N)cc1	–	> 5.88	> 10	> 85	> 10	> 85	1.7	–	–
N=C(N)/N=C(\N)N1CCOCC1 [MOROXYDINE]	–	–	> 10	–	–	–	–	–	–
NC(N)=N/C(N)=N/Cc1ccc(Cl)c(Cl)c1	–	33.3	> 10	> 85	1.2	> 85	0.036	–	–
